The record followed here is patent US20080161288A1, “COMPOUNDS” (Pfizer Inc., priority 2006, published 2008).

Each structure is given as a SMILES string. pEC50: −log10 of the molar value. Counter-ions that a name gives are not always drawn.

Test [1] addresses T1, bovine beta-2 adrenoceptor (Bos taurus, UniProt Q28044).
T1 construct: expressed in transfected cells; host or cells: CHO cells
In words: cAMP assay in CHO cells transfected with the bovine beta-2 adrenoceptor. Type of test: cell-based. As to conditions: cAMP (DiscoveRx Hit Hunter cAMP II) in CHO cells transfected with bovine beta-2 adrenoceptor, 30 minutes with compound, 0.5 mM IBMX. Here is the method:
(§1) CHO cells transfected with the bovine or porcine beta-2 adrenceptors were maintained in culture in DMEM/HAMS F12+10% FBS+2 mM glutamine+500 μg/ml geneticin (for the porcine receptor the medium was supplement with 1.5 mM HEPES) at 37° C. with a 5% CO2 atmosphere.
(§2) Cells were plated into 96 well viewplates in medium and incubated overnight at 37° C. with a 5% CO2 atmosphere. The cells were pre-incubated with 0.5 mM IBMX in PBS for 30 minutes prior to incubation with increasing concentrations of experimental compound (5×10^−12 to 10^−5 M) for 30 minutes at 37° C. with a 5% CO2 atmosphere. At the end of the incubation time the compound was removed and the cells assayed for cAMP using the DiscoveRx Hit Hunter cAMP II™ assay kit.
(§3) Duplicate samples were run for each experimental compound and the data generated was analysed using EC50 analysis software in Graphpad Prism.
On the technique in general: Changes in cAMP serve as a functional read-out for many G protein-coupled receptors.

Test [2] has as its target T2, porcine beta-2 adrenoceptor (Sus scrofa, UniProt Q28997).
T2 construct: expressed in transfected cells; host or cells: CHO cells
In words: cAMP assay in CHO cells transfected with the porcine beta-2 adrenoceptor. The test is classed as cell-based. As to conditions: cAMP (DiscoveRx Hit Hunter cAMP II) in CHO cells transfected with porcine beta-2 adrenoceptor, 30 minutes with compound, 0.5 mM IBMX. As for the experimental part: as §1, §2, §3

T1 sequence (Q28044 whole entry): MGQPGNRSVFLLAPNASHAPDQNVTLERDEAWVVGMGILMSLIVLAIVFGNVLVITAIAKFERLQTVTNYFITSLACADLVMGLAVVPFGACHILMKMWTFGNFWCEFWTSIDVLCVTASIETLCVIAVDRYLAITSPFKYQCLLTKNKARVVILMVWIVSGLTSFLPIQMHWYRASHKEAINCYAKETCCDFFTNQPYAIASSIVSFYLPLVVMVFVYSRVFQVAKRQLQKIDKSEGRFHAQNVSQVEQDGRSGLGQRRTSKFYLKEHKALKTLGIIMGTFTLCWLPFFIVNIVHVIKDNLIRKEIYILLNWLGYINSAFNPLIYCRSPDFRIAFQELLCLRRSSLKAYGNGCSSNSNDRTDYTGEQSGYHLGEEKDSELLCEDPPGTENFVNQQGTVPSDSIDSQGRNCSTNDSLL
T2 sequence (Q28997 whole entry): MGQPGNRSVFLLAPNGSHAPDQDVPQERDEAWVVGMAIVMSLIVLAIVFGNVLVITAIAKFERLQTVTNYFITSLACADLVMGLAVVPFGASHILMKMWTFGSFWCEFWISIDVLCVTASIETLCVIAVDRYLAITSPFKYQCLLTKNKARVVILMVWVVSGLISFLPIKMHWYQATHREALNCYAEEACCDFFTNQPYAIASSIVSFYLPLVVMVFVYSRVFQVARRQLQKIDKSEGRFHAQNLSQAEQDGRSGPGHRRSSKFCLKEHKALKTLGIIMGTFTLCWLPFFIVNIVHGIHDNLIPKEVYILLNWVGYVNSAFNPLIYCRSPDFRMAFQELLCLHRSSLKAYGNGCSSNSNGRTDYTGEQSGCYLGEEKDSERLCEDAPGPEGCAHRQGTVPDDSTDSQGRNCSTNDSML

The pEC50 is the negative decadic logarithm of the EC50, by convention in mol/L. As to `COc1cccc(CCC(C)N[C@@H]2CCn3c(=O)[nH]c4cccc(c43)[C@H]2O)c1O` (single isomer, unassigned) [Example 8a, 7-hydroxy-6-{[3-(2-hydroxy-3-methoxyphenyl)-1-methylpropyl]amino}-4,5,6,7-tetrahydroimidazo[4,5,1-jk][1]benzazepin-2(1H)-one], the pEC50 in test [1] is 6.70; in test [2] it was 6.76.
On to `COc1cccc(CCC(C)N[C@@H]2CCn3c(=O)[nH]c4cccc(c43)[C@H]2O)c1O` (single isomer, unassigned) [Example 8b, 7-hydroxy-6-{[3-(2-hydroxy-3-methoxyphenyl)-1-methylpropyl]amino}-4,5,6,7-tetrahydroimidazo[4,5,1-jk][1]benzazepin-2(1H)-one], for which the pEC50 in test [1] was 9.15; in test [2], 8.96.
In the same order, the values of `CC(CCc1ccccc1)N[C@@H]1CCn2c(=O)[nH]c3cccc(c32)[C@H]1O` (single isomer, unassigned) [Example 9b, 7-Hydroxy-6-[(1-methyl-3-phenylpropyl)amino]-4,5,6,7-tetrahydroimidazo[4,5,1-jk][1]benzazepin-2(1H)-one] are 6.75 and 7.46.
In the case of `CC(CCc1ccccc1)N[C@@H]1CCn2c(=O)[nH]c3cccc(c32)[C@H]1O` (single isomer, unassigned) [Example 9d, 7-Hydroxy-6-[(1-methyl-3-phenylpropyl)amino]-4,5,6,7-tetrahydroimidazo[4,5,1-jk][1]benzazepin-2(1H)-one], the pEC50 in test [1] is 8.23; in test [2], 8.64.
As for `CC(CCc1ccccc1)N[C@@H]1CCn2c(=O)[nH]c3cccc(c32)[C@H]1O` (single isomer, unassigned) [Example 9e, 7-Hydroxy-6-[(1-methyl-3-phenylpropyl)amino]-4,5,6,7-tetrahydroimidazo[4,5,1-jk][1]benzazepin-2(1H)-one], the pEC50 in test [1] is 8.15; in test [2] it was 8.64.
In the same order, the values of `CC(CC(C)(C)c1ccccc1)N[C@@H]1CCn2c(=O)[nH]c3cccc(c32)[C@H]1O` (single isomer, unassigned) [Example 14a, 6-[(1,3-Dimethyl-3-phenylbutyl)amino]-7-hydroxy-4,5,6,7-tetrahydroimidazo[4,5,1-jk][1]benzazepin-2(1H)-one] are 6.37 and 6.41.
In the same order, the values of `CC(CC(C)(C)c1ccccc1)N[C@@H]1CCn2c(=O)[nH]c3cccc(c32)[C@H]1O` (single isomer, unassigned) [Example 14b, 6-[(1,3-Dimethyl-3-phenylbutyl)amino]-7-hydroxy-4,5,6,7-tetrahydroimidazo[4,5,1-jk][1]benzazepin-2(1H)-one] are 8.47 and 8.38.
On to `CC(CCc1cc(Cl)ccc1O)N[C@@H]1CCn2c(=O)[nH]c3cccc(c32)[C@H]1O` (single isomer, unassigned) [Example 19a, 6-{[3(5-Chloro-2-hydroxyphenyl)-1-methylpropyl]amino}-7-hydroxy-4,5,6,7-tetrahydroimidazo[4,5,1-jk][1]benzazepin-2(1H)-one], for which the pEC50 in test [1] is 9.22; in test [2], 9.05.
Turning to `CC(CCc1cc(Cl)ccc1O)N[C@@H]1CCn2c(=O)[nH]c3cccc(c32)[C@H]1O` (single isomer, unassigned) [Example 19b, 6-{[3-(5-Chloro-2-hydroxyphenyl)-1-methylpropyl]amino}-7-hydroxy-4,5,6,7-tetrahydroimidazo[4,5,1-jk][1]benzazepin-2(1H)-one], the pEC50 was 6.91 in test [1] and 7.00 in test [2].
In the same order, the values of `CC(CCc1cccc(F)c1O)N[C@@H]1CCn2c(=O)[nH]c3cccc(c32)[C@H]1O` (single isomer, unassigned) [Example 28a] are 8.82 and 8.74.
For the compound `CC(CCc1ccc(O)c(F)c1)NC1CCn2c(=O)[nH]c3cccc(c32)C1O` (single isomer, unassigned) [Example 36, 6-{[3-(3-Fluoro-4-hydroxyphenyl)-1-methylpropyl]amino}-7-hydroxy-4,5,6,7-tetrahydroimidazo[4,5,1-jk][1]benzazepin-2(1H)-one], the pEC50 in test [1] was 8.85; in test [2], 8.66.
On to `CC(CCc1ccc(O)c(F)c1F)NC1CCn2c(=O)[nH]c3cccc(c32)C1O` (single isomer, unassigned) [Example 37, 6-{[3-(2,3-Difluoro-4-hydroxyphenyl)-1-methylpropyl]amino}-7-hydroxy-4,5,6,7-tetrahydroimidazo[4,5,1-jk][1]benzazepin-2(1H)-one], for which the pEC50 in test [1] was 8.55; in test [2] it was 8.72.
Turning to `CC(CCc1cccc(O)c1)NC1CCn2c(=O)[nH]c3cccc(c32)C1O` (single isomer, unassigned) [Example 39, 7-Hydroxy-6-{[3-(3-hydroxyphenyl)-1-methylpropyl]amino}-4,5,6,7-tetrahydroimidazo[4,5,1-jk][1]benzazepin-2(1H)-one], the pEC50 in test [1] is 8.12; in test [2] it was 8.25.
Consider `CC(/C=C/c1ccccc1F)N[C@@H]1CCn2c(=O)[nH]c3cccc(c32)[C@H]1O` (single isomer, unassigned) [Example 40a, 6-{[3-(2-Fluorophenyl)-1-methylprop-2-en-1-yl]amino}-7-hydroxy-4,5,6,7-tetrahydroimidazo[4,5,1-jk][1]benzazepin-2(1H)-one], for which the pEC50 in test [1] is 6.62; in test [2], 7.19.
In the case of `CC(/C=C/c1ccccc1F)N[C@@H]1CCn2c(=O)[nH]c3cccc(c32)[C@H]1O` (single isomer, unassigned) [Example 40b, 6-{[3-(2-Fluorophenyl)-1-methylprop-2-en-1-yl]amino}-7-hydroxy-4,5,6,7-tetrahydroimidazo[4,5,1-jk][1]benzazepin-2(1H)-one], the pEC50 was 7.48 in test [1] and 7.74 in test [2].
Turning to `C[C@H](CCc1ccc(N)cc1)N[C@@H]1CCn2c(=O)[nH]c3cccc(c32)[C@H]1O` (single isomer, unassigned) [Example 45, 6-{[3-(4-Aminophenyl)-1-methylpropyl]amino}-7-hydroxy-4,5,6,7-tetrahydroimidazo[4,5,1-jk][1]benzazepin-2(1H)-one], the pEC50 in test [1] is 7.52; in test [2], 7.68.
For the compound `C[C@H](CCc1cccc(N)c1)N[C@@H]1CCn2c(=O)[nH]c3cccc(c32)[C@H]1O` (single isomer, unassigned) [Example 46, 6-{[3-(3-Aminophenyl)-1-methylpropyl]amino}-7-hydroxy-4,5,6,7-tetrahydroimidazo[4,5,1-jk][1]benzazepin-2(1H)-one], the pEC50 in test [1] was 7.47; in test [2], 7.54.
`CC(CCc1ccccc1O)N[C@@H]1CCn2c(=O)[nH]c3cccc(c32)[C@H]1O` (single isomer, unassigned) [Example 48, Hydrochloride salt of 7-hydroxy-6-{[3-(2-hydroxyphenyl)-1-methylpropyl]amino}-4,5,6,7-tetrahydroimidazo[4,5,1-jk][1]benzazepin-2(1H)-one]: the pEC50 in test [1] was 9.00; in test [2] it was 8.72.
`CC(CCc1cccc(O)c1Cl)N[C@@H]1CCn2c(=O)[nH]c3cccc(c32)[C@H]1O` (single isomer, unassigned) [Example 50, 6-{[3-(2-Chloro-3-hydroxyphenyl)-1-methylpropyl]amino}-7-hydroxy-4,5,6,7-tetrahydroimidazo[4,5,1-jk][1]benzazepin-2(1H)-one]: the results for the pEC50 in test [1] and in test [2] were 8.77 and 8.89, respectively.
Turning to `CC(CCc1ccccc1NC(=O)C(F)(F)F)N[C@@H]1CCn2c(=O)[nH]c3cccc(c32)[C@H]1O` (single isomer, unassigned) [Example 51, 2,2,2-Trifluoro-N-{2-[3-{[7-hydroxy-2-oxo-1,2,4,5,6,7-hexahydroimidazo[4,5,1-jk][1]benzazepin-6-yl]amino}butyl]phenyl}acetamide], the pEC50 is 8.44 in test [1] and 7.96 in test [2].
In the same order, the values of `CC(CCc1ccc(C(=O)NCC(F)(F)F)cc1)N[C@@H]1CCn2c(=O)[nH]c3cccc(c32)[C@H]1O` (single isomer, unassigned) [Example 52, 4-[-3-{[7-Hydroxy-2-oxo-1,2,4,5,6,7-hexahydroimidazo[4,5,1-jk][1]benzazepin-6-yl]amino}butyl]-N-(2,2,2-trifluoroethyl)benzamide] are 8.11 and 7.42.
In the same order, the values of `CC(CCc1cccc(C(=O)O)c1)N[C@@H]1CCn2c(=O)[nH]c3cccc(c32)[C@H]1O` (single isomer, unassigned) [Example 53] are 6.78 and 7.10.
As for `CC(CCc1c(Cl)ccc(O)c1Cl)NC1CCn2c(=O)[nH]c3cccc(c32)C1O` (single isomer, unassigned) [Example 55], the negative logarithm of the EC50 (pEC50) in test [1] was 8.37; in test [2], 8.57.
With `CCS(=O)(=O)Nc1ccccc1CCC(C)NC1CCn2c(=O)[nH]c3cccc(c32)C1O` (single isomer, unassigned) [Example 56, N-{2-[3-{[7-Hydroxy-2-oxo-1,2,4,5,6,7-hexahydroimidazo[4,5,1-jk][1]benzazepin-6-yl]amino}butyl]phenyl}ethanesulfonamide], the results for the pEC50 in test [1] and in test [2] were 8.28 and 8.55, respectively.
